According to patent US8802597B2, “Herbicidal pyrimidines” (E I du Pont de Nemours and Company, priority 2003, dated 2014):
Where two headings read alike, the source gives them in different places.

How the values were obtained:
Assay in all cases: Test C pre/postemergence
Type in all cases: in vivo
[1] = tested on: goosegrass (Eleusine indica); details: Eleusine indica; for pest or weed control at 16 g/ha: 16 g ai/ha; for pest or weed control at 31 g/ha: 31 g ai/ha; for pest or weed control at 62 g/ha: 62 g ai/ha; for pest or weed control at 125 g/ha: 125 g ai/ha
Method in brief: (§1)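 Applications: preemergence onto seeded soil and postemergence onto 1- to 4-leaf seedlings, compound carried in non-phytotoxic solvent plus surfactant. Kept in greenhouse 12 to 14 days. Scored visually relative to untreated controls, 0 (no effect) to 100 (complete control).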

[2] = tested on: bermudagrass (Cynodon dactylon); details: Cynodon dactylon; for pest or weed control at 16 g/ha: 16 g ai/ha; for pest or weed control at 31 g/ha: 31 g ai/ha; for pest or weed control at 62 g/ha: 62 g ai/ha; for pest or weed control at 125 g/ha: 125 g ai/ha
Method in brief: as §1

[3] = tested on: eastern black nightshade (Solanum ptycanthum); details: Solanum, pre-emergence, Preemergence, read-out: Plant response rating, Nightshade
Method in brief: as §1

[4] = tested on: cocklebur (Xanthium strumarium); details: Xanthium strumarium; for pest or weed control at 16 g/ha: 16 g ai/ha; for pest or weed control at 31 g/ha: 31 g ai/ha; for pest or weed control at 62 g/ha: 62 g ai/ha; for pest or weed control at 125 g/ha: 125 g ai/ha
Method in brief: as §1

[5] = tested on: velvetleaf (Abutilon theophrasti); details: Abutilon theophrasti; for pest or weed control at 16 g/ha: 16 g ai/ha; for pest or weed control at 31 g/ha: 31 g ai/ha; for pest or weed control at 62 g/ha: 62 g ai/ha; for pest or weed control at 125 g/ha: 125 g ai/ha
Method in brief: as §1

corn (Zea mays) = details: Zea mays; for Corn plant response rating (crop injury, 0 = no effect, 100 = complete kill) at 16 g/ha: 16 g ai/ha; for Corn plant response rating (crop injury, 0 = no effect, 100 = complete kill) at 31 g/ha: 31 g ai/ha; for Corn plant response rating (crop injury, 0 = no effect, 100 = complete kill) at 62 g/ha: 62 g ai/ha; for Corn plant response rating (crop injury, 0 = no effect, 100 = complete kill) at 125 g/ha: 125 g ai/ha
Method in brief: as §1

[6] = tested on: crabgrass (Digitaria sanguinalis); details: Digitaria sanguinalis; for pest or weed control at 16 g/ha: 16 g ai/ha; for pest or weed control at 31 g/ha: 31 g ai/ha; for pest or weed control at 62 g/ha: 62 g ai/ha; for pest or weed control at 125 g/ha: 125 g ai/ha
Method in brief: as §1

[7] = tested on: lambsquarters (Chenopodium album); details: Chenopodium album; for pest or weed control at 16 g/ha: 16 g ai/ha; for pest or weed control at 31 g/ha: 31 g ai/ha; for pest or weed control at 62 g/ha: 62 g ai/ha; for pest or weed control at 125 g/ha: 125 g ai/ha
Method in brief: as §1

[8] = post-emergence, Postemergence, read-out: Plant response rating (scale of 0 to 100), Goosegrass
[9] = post-emergence, Postemergence, scale 0 to 100 (0 no effect, 100 complete control), read-out: Goosegrass plant response rating
[10] = pre-emergence, Preemergence, scale 0 to 100, 0 no effect, 100 complete control, read-out: Plant response rating, Goosegrass
[11] = post-emergence, Postemergence, read-out: Plant response rating (scale of 0 to 100), Bermudagrass
[12] = post-emergence, Postemergence, scale 0 to 100 (0 no effect, 100 complete control), read-out: Bermudagrass plant response rating
[13] = pre-emergence, Preemergence, scale 0 to 100, 0 no effect, 100 complete control, read-out: Plant response rating, Bermudagrass
[14] = post-emergence, Postemergence, read-out: Plant response rating (scale of 0 to 100), Cocklebur
[15] = post-emergence, Postemergence, scale 0 to 100 (0 no effect, 100 complete control), read-out: Cocklebur plant response rating
[16] = pre-emergence, Preemergence, scale 0 to 100, 0 no effect, 100 complete control, read-out: Plant response rating, Cocklebur
[17] = post-emergence, Postemergence, read-out: Plant response rating (scale of 0 to 100), Velvetleaf
[18] = post-emergence, Postemergence, scale 0 to 100 (0 no effect, 100 complete control), read-out: Velvetleaf plant response rating
[19] = pre-emergence, Preemergence, scale 0 to 100, 0 no effect, 100 complete control, read-out: Plant response rating, Velvetleaf
[20] = post-emergence, Postemergence, read-out: Plant response rating (scale of 0 to 100), Corn
[21] = post-emergence, Postemergence, scale 0 to 100 (0 no effect, 100 complete control), read-out: Corn plant response rating
[22] = pre-emergence, Preemergence, scale 0 to 100, 0 no effect, 100 complete control, read-out: Plant response rating, Corn
[23] = post-emergence, Postemergence, read-out: Plant response rating (scale of 0 to 100), Crabgrass
[24] = post-emergence, Postemergence, scale 0 to 100 (0 no effect, 100 complete control), read-out: Crabgrass plant response rating
[25] = pre-emergence, Preemergence, scale 0 to 100, 0 no effect, 100 complete control, read-out: Plant response rating, Crabgrass
[26] = post-emergence, Postemergence, read-out: Plant response rating (scale of 0 to 100), Lambsquarters
[27] = post-emergence, Postemergence, scale 0 to 100 (0 no effect, 100 complete control), read-out: Lambsquarters plant response rating
[28] = pre-emergence, Preemergence, scale 0 to 100, 0 no effect, 100 complete control, read-out: Plant response rating, Lambsquarters

COC(=O)c1nc(C2CC2)nc(N)c1F [Compound 25]
pest or weed control at 16 g/ha [1, 8]: 0% | pest or weed control at 31 g/ha [1, 8]: 0% | pest or weed control at 62 g/ha [1, 9]: 0% | pest or weed control at 125 g/ha [1, 9]: 0% | pest or weed control at 16 g/ha [1, 10]: 0% | pest or weed control at 31 g/ha [1, 10]: 0% | pest or weed control at 62 g/ha [1, 10]: 0% | pest or weed control at 125 g/ha ([1]; pre-emergence, Preemergence, scale 0 to 100, read-out: Plant response rating, Goosegrass): 0% | pest or weed control at 16 g/ha [2, 11]: 0% | pest or weed control at 31 g/ha [2, 11]: 0% | pest or weed control at 62 g/ha [2, 12]: 0% | pest or weed control at 125 g/ha [2, 12]: 0% | pest or weed control at 16 g/ha [2, 13]: 0% | pest or weed control at 31 g/ha [2, 13]: 0% | pest or weed control at 62 g/ha [2, 13]: 0% | pest or weed control at 125 g/ha ([2]; pre-emergence, Preemergence, scale 0 to 100, read-out: Plant response rating, Bermudagrass): 10% | pest or weed control at 16 g/ha ([3]; 16 g ai/ha, scale 0 to 100, 0 no effect, 100 complete control): 0% | pest or weed control at 31 g/ha ([3]; 31 g ai/ha, scale 0 to 100, 0 no effect, 100 complete control): 0% | pest or weed control at 62 g/ha ([3]; 62 g ai/ha, scale 0 to 100, 0 no effect, 100 complete control): 30% | pest or weed control at 125 g/ha ([3]; 125 g ai/ha, scale 0 to 100): 75% | pest or weed control at 16 g/ha [4, 14]: 70% | pest or weed control at 31 g/ha [4, 14]: 85% | pest or weed control at 62 g/ha [4, 15]: 90% | pest or weed control at 125 g/ha [4, 15]: 90% | pest or weed control at 16 g/ha [4, 16]: 0% | pest or weed control at 31 g/ha [4, 16]: 20% | pest or weed control at 62 g/ha [4, 16]: 60% | pest or weed control at 125 g/ha ([4]; pre-emergence, Preemergence, scale 0 to 100, read-out: Plant response rating, Cocklebur): 85% | pest or weed control at 16 g/ha [5, 17]: 5% | pest or weed control at 31 g/ha [5, 17]: 20% | pest or weed control at 62 g/ha [5, 18]: 45% | pest or weed control at 125 g/ha [5, 18]: 45% | pest or weed control at 16 g/ha [5, 19]: 0% | pest or weed control at 31 g/ha [5, 19]: 0% | pest or weed control at 62 g/ha [5, 19]: 0% | pest or weed control at 125 g/ha ([5]; pre-emergence, Preemergence, scale 0 to 100, read-out: Plant response rating, Velvetleaf): 40% | Corn plant response rating (crop injury, 0 = no effect, 100 = complete kill) at 16 g/ha (corn (Zea mays); [20]): 0% | Corn plant response rating (crop injury, 0 = no effect, 100 = complete kill) at 31 g/ha (corn (Zea mays); [20]): 0% | Corn plant response rating (crop injury, 0 = no effect, 100 = complete kill) at 62 g/ha (corn (Zea mays); [21]): 0% | Corn plant response rating (crop injury, 0 = no effect, 100 = complete kill) at 125 g/ha (corn (Zea mays); [21]): 0% | Corn plant response rating (crop injury, 0 = no effect, 100 = complete kill) at 16 g/ha (corn (Zea mays); [22]): 0% | Corn plant response rating (crop injury, 0 = no effect, 100 = complete kill) at 31 g/ha (corn (Zea mays); [22]): 0% | Corn plant response rating (crop injury, 0 = no effect, 100 = complete kill) at 62 g/ha (corn (Zea mays); [22]): 0% | Corn plant response rating (crop injury, 0 = no effect, 100 = complete kill) at 125 g/ha (corn (Zea mays); pre-emergence, Preemergence, scale 0 to 100, read-out: Plant response rating, Corn): 0% | pest or weed control at 16 g/ha [6, 23]: 0% | pest or weed control at 31 g/ha [6, 23]: 0% | pest or weed control at 62 g/ha [6, 24]: 30% | pest or weed control at 125 g/ha [6, 24]: 50% | pest or weed control at 16 g/ha [6, 25]: 0% | pest or weed control at 31 g/ha [6, 25]: 0% | pest or weed control at 62 g/ha [6, 25]: 0% | pest or weed control at 125 g/ha ([6]; pre-emergence, Preemergence, scale 0 to 100, read-out: Plant response rating, Crabgrass): 0% | pest or weed control at 16 g/ha [7, 26]: 30% | pest or weed control at 31 g/ha [7, 26]: 60% | pest or weed control at 62 g/ha [7, 27]: 85% | pest or weed control at 125 g/ha [7, 27]: 90% | pest or weed control at 16 g/ha [7, 28]: 0% | pest or weed control at 31 g/ha [7, 28]: 0% | pest or weed control at 62 g/ha [7, 28]: 30% | pest or weed control at 125 g/ha ([7]; pre-emergence, Preemergence, scale 0 to 100, read-out: Plant response rating, Lambsquarters): 50%
